Molecular target: T1, Dimer of Gag-Pol polyprotein [501-599,Q508K,L534I,L564I,C568A,C596A] (Human immunodeficiency virus 1, UniProt P03367, C568A/C596A/L534I/L564I/Q508K)
T1 construct: 501-599
Test: Protease Inhibition Assay
Details: pH 6.5; 37 °C

Structure (SMILES): CCC(=O)N[C@H](C(=O)N[C@@H](Cc1ccc(O)cc1)[C@H](O)CN[C@H]1Cc2ccc(cc2)OCCCNC(=O)[C@H](C(C)CC)NC1=O)C(C)C (stereo partly drawn) [(2S)-N-[(2S,3R)-4-{[(8S,11S)-8-[(2S)-butan-2-yl]-7,10-dioxo-2-oxa-6,9-diazabicyclo[11.2.2]heptadeca-1(15),13,16-trien-11-yl]amino}-3-hydroxy-1-(4-hydroxyphenyl)butan-2-yl]-3-methyl-2-propanamidobutanamide]
- Ki: 3 nM

Source: BindingDB's records for doi:10.1021/bi990174x (University of Queensland, 1999)
